Experiments:
Histone deacetylase 1 = Histone deacetylase 1 (Homo sapiens, UniProt Q13547)
Description: Inhibition of HDAC1 assessed as blockade of decorboxylation of carboxyfluorescein labeled acetylated peptide substrate after 17 hrs

Histone deacetylase 2 = Histone deacetylase 2 (Homo sapiens, UniProt Q92769)
Description: Inhibition of HDAC2 assessed as blockade of decorboxylation of carboxyfluorescein labeled acetylated peptide substrate after 17 hrs

[1] = molecular target: T1, Polyamine deacetylase HDAC10 (Homo sapiens, UniProt Q969S8)
T1 sequence (Q969S8 whole entry): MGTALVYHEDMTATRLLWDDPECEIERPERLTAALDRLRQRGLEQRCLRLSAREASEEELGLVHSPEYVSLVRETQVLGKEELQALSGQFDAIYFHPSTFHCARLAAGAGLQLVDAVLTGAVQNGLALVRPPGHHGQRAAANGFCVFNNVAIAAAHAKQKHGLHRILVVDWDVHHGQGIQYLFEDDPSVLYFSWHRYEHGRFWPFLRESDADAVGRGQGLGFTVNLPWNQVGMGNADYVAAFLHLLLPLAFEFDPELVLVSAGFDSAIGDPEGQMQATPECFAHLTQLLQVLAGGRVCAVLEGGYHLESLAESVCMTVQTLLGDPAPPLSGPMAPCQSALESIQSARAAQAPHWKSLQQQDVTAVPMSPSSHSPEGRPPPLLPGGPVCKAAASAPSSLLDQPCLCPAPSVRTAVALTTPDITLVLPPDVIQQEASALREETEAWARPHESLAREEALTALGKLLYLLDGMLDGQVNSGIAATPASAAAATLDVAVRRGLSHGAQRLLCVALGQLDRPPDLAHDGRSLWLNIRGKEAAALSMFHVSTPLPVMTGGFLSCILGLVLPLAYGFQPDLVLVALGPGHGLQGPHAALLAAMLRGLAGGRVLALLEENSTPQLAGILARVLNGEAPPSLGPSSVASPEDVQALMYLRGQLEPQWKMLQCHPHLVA
Description: Inhibition of HDAC10 assessed as blockade of decorboxylation of carboxyfluorescein labeled acetylated peptide substrate after 17 hrs

[2] = molecular target: T2, Protein deacetylase HDAC6 (Homo sapiens, UniProt Q9UBN7)
T2 sequence (Q9UBN7 whole entry): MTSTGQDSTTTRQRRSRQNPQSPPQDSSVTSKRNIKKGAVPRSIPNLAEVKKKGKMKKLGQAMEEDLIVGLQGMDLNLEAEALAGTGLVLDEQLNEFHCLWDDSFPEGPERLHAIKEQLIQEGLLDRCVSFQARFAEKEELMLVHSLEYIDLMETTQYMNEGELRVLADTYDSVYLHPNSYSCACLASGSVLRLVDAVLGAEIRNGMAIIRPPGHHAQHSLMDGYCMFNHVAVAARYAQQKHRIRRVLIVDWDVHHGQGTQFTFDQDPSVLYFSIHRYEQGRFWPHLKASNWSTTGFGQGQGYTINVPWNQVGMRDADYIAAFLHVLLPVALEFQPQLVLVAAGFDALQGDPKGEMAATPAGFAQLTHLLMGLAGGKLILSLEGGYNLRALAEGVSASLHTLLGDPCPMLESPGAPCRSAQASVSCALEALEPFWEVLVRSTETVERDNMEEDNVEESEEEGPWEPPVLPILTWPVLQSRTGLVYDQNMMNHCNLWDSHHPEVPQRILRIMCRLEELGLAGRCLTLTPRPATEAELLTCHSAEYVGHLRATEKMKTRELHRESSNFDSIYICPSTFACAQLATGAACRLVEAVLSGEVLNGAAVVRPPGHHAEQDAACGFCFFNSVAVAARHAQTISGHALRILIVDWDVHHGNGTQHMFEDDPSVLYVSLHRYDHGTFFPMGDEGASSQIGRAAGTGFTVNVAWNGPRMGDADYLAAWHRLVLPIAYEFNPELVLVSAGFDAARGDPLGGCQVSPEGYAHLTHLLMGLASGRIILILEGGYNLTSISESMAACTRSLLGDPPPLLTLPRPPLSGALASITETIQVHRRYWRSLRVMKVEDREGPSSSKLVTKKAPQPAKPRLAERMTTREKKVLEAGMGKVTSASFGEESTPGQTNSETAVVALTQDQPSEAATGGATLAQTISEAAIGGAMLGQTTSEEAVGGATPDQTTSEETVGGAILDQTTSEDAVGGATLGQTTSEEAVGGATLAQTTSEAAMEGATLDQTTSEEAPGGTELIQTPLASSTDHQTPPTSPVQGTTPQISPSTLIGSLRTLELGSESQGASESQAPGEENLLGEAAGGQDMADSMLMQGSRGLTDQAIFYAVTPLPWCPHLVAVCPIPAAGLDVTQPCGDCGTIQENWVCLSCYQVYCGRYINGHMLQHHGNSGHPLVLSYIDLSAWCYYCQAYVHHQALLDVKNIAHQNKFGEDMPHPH
Description: Inhibition of HDAC6 assessed as blockade of decorboxylation of carboxyfluorescein labeled acetylated peptide substrate after 17 hrs

Histone deacetylase 8 = molecular target: T3, Histone deacetylase 8 (Homo sapiens, UniProt Q9BY41)
T3 sequence (Q9BY41 whole entry): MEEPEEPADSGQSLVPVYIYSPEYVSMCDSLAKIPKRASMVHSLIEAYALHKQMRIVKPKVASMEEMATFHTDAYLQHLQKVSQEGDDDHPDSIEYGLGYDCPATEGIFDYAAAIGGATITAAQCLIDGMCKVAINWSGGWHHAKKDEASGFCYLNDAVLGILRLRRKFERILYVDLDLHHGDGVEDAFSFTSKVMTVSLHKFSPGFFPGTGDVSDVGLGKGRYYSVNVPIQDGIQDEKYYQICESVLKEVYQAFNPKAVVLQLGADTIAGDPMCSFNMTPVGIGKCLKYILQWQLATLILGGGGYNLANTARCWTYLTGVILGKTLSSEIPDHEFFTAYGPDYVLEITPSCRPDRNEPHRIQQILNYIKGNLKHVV
Description: Inhibition of HDAC8 assessed as blockade of decorboxylation of carboxyfluorescein labeled acetylated peptide substrate after 17 hrs

HuP-T3 = test: cells; settings: Homo sapiens, HuP-T3, 72 h
BXPC-3 = test: cells; settings: Homo sapiens, BXPC-3, 72 h
MIA PaCa-2 = test: cells; settings: Homo sapiens, MIA PaCa-2, 72 h
cells [3] = settings: Homo sapiens, Panc 04.03, 72 h
cells [4] = settings: Homo sapiens, SU.86.86, 72 h
Histone deacetylase 3 = Histone deacetylase 3 (Homo sapiens, UniProt O15379)
Chain of Histone deacetylase 3 (O15379 whole entry): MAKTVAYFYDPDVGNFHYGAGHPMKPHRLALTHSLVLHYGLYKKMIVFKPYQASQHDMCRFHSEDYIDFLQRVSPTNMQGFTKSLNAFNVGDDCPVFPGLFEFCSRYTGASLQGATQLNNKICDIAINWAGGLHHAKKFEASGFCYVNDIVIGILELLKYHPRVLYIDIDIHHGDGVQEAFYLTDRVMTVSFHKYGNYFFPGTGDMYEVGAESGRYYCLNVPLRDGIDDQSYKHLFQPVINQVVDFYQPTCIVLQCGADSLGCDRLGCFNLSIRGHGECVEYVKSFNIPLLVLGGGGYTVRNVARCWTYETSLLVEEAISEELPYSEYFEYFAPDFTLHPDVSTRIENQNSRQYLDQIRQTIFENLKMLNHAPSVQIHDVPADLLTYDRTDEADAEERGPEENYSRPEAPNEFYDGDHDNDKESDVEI
Description: Inhibition of HDAC3 assessed as blockade of decorboxylation of carboxyfluorescein labeled acetylated peptide substrate after 17 hrs

Chain of Histone deacetylase 1 (Q13547 whole entry): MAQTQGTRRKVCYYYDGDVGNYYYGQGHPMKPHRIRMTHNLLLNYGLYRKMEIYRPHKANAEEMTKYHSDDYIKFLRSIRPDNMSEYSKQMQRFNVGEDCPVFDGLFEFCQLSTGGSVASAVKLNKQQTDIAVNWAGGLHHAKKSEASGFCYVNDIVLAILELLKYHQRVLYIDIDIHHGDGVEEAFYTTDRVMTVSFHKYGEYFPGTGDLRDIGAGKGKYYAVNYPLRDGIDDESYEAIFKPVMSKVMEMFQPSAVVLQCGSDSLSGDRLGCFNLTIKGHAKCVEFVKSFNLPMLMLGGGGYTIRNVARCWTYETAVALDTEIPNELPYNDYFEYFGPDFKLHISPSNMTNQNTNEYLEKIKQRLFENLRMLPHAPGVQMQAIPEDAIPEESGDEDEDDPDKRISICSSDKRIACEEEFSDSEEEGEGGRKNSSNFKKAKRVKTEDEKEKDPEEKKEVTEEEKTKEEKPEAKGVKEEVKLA
Chain of Histone deacetylase 2 (Q92769 whole entry): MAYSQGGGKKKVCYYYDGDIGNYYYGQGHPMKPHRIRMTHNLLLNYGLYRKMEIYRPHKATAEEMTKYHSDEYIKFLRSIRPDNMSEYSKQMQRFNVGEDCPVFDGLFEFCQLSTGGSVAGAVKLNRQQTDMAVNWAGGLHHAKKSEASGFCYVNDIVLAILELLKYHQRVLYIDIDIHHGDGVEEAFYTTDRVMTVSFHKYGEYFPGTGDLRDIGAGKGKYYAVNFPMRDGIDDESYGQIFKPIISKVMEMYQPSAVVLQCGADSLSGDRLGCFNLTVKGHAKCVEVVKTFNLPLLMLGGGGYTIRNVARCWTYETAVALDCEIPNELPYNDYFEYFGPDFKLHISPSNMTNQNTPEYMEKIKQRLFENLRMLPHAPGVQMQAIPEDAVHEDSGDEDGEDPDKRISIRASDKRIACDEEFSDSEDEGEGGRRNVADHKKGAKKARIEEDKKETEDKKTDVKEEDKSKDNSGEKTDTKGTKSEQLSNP

Row | SMILES | IC50 (Histone deacetylase 1) [nM] | IC50 (Histone deacetylase 2) [nM] | IC50 [1] [nM] | IC50 [2] [nM] | IC50 (Histone deacetylase 8) [nM] | IC50 (HuP-T3) [nM] | IC50 (BXPC-3) [nM] | IC50 (MIA PaCa-2) [nM] | IC50 (cells [3]) [nM] | IC50 (cells [4]) [nM] | IC50 (Histone deacetylase 3) [nM]
1 | O=C(CCCCCCC(=O)Nc1cccc(-c2cn(-c3cc(CO)cc(CO)c3)nn2)c1)NO | 5.7 | 27.8 | 5.8 | 1.9 | 1320 | – | – | – | – | – | –
2 | O=C(CCCCCCC(=O)Nc1cccc(-c2cn(-c3ccc(F)cc3)nn2)c1)NO | 31.9 | 60 | 32.8 | 8.4 | 12000 | – | – | – | – | – | –
3 | O=C(CCCCCCC(=O)Nc1cccc(-c2cn(-c3ccc(I)cc3)nn2)c1)NO | 8 | 24.6 | 10.7 | 2.2 | > 30000 | 1400 | 1100 | 2330 | 2340 | 7700 | –
4 | Nc1ccccc1NC(=O)CCCCCCC(=O)Nc1cccc(-n2cc(-c3ccccc3)nn2)c1 | – | – | > 30000 | > 30000 | > 30000 | > 50000 | > 50000 | > 50000 | > 50000 | 32000 | 122
5 | O=C(CCCCCCC(=O)Nc1cccc(-n2cc(C3CCCCC3)nn2)c1)NO | 12.1 | 48.2 | 16.6 | 4.3 | 2750 | 400 | 2000 | 100 | 500 | 900 | 5.3
6 | O=C(CCCCCCC(=O)Nc1cccc(-c2cn(-c3cc(F)cc(F)c3)nn2)c1)NO | 5.3 | – | – | – | – | – | – | – | – | – | –
7 | O=C(CCCCCCC(=O)Nc1cccc(-c2cn(-c3ccc(C(F)(F)F)cc3)nn2)c1)NO | 8.7 | 28.5 | 14.5 | 2.9 | 5220 | – | – | – | – | – | –
8 | O=C(CCCCCCC(=O)Nc1cccc(-n2cc(-c3ccccc3)nn2)c1)NO | 4.6 | 25.1 | 6.8 | 3.1 | 4180 | – | – | – | – | – | –
9 | O=C(CCCCCCC(=O)Nc1cccc(-c2cn(-c3ccccc3)nn2)c1)NO | – | – | – | – | – | – | – | – | < 500 | – | –
10 | O=C(CCCCCCC(=O)Nc1cccc(-c2cn(C3CCCCC3)nn2)c1)NO | 8.6 | 27.5 | 9.8 | 3.3 | 1190 | 400 | 4000 | 100 | 500 | 100 | 3.7

— ChEMBL document CHEMBL1154884, “Synthesis and biological evaluation of triazol-4-ylphenyl-bearing histone deacetylase inhibitors as anticancer agents” (J Med Chem, 2010)
